{
  "source": "patent US11008325B2",
  "about": "“Inhibitors of cancer invasion, attachment, and/or metastasis” (VIRGINIA COMMONWEALTH UNIVERSITY, priority 2016, dated 2021)",
  "key": {"U87 cells [1]": {"test_system": "U87 cells", "assay": "trans-well Matrigel invasion assay", "assay_type": "cell-based, human", "procedure": "FIGS. 7A-7B. FIG. 7A. Im-PHFA, primary immortal human fetal astrocyte cells were infected with an MDA-9/Syntenin expression plasmid carrying adenovirus. 48 hrs post-infection both the control and MDA-9/Syntenin overexpressing cells were treated with DMSO or PDZ1i followed by seeding in a trans-well Matrigel invasion assay and stained after 24 hrs. FIG. 7B. T98G and U87 were treated with DMSO or PDZ1i and seeding in a trans-well Matrigel invasion assay and stained after 24 hrs. Invasion was quantified from 4 random fields. Data represents fold changes and average±S.D.\nFIGS. 8A-8D. PDZ1i produces similar effects to mda-9/syntenin knockdown post-radiation. FIG. 8A. ImPHFA and U87 cells were treated with 50 μM PDZ1i 2 h prior to radiation and analyzed for colony formation after 14 d. […] U87 cells were treated with 50 μM PDZ1i 2 h prior to radiation and analyzed via MTT assay after 24 h. […] Invasion was quantified from 5 random fields in FIG. 8D. […]\nInvasion was measured using 24-well BioCoat cell culture inserts (BD Biosciences, Bedford, Mass.) with an 8-μm-porosity polyethylene terephthalate membrane coated with Matrigel Basement Membrane Matrix (100 μg/cm^2). […] Cells remaining on the upper surface of the filters were removed by wiping with a cotton swab, and invasion was determined by counting the cells that migrated to the lower side of the filter using at least 5 fields per insert at 100× magnification. […]"}, "U87 cells [2]": {"test_system": "U87 cells", "assay": "MTT assay after radiation", "assay_type": "cell-based, human", "conditions": "radiation plus PDZ1i versus radiation plus DMSO", "procedure": "(§1) FIGS. 8A-8D. PDZ1i produces similar effects to mda-9/syntenin knockdown post-radiation. FIG. 8A. ImPHFA and U87 cells were treated with 50 μM PDZ1i 2 h prior to radiation and analyzed for colony formation after 14 d. FIG. 8B. U87 cells were treated with 50 μM PDZ1i 2 h prior to radiation and analyzed via MTT assay after 24 h. FIG. 8C. U87 cells were pretreated with 50 μM PDZ1i 2 h prior to radiation and subsequently seeded in a trans-well Matrigel invasion assay and stained after 24 h. Invasion was quantified from 5 random fields in FIG. 8D. Error bars=±s.d. *p<0.05, **p<0.01.\n(§2) Clonogenic radiosurvival experiments were carried out as described previously (4,7). Briefly, cells were diluted, seeded on 6-cm dishes, and after the cells attached, treated with DMSO or PDZ1i (12.5, 25, or 50 μM) in the medium for 2 h before irradiation. Cells were incubated overnight, and the medium changed to nondrug containing medium 16 h postirradiation. Cells were incubated further for 14 days, stained with 2% Giemsa solution, and colonies consisting of 50 or more were counted. Cell viability was assessed through MTT analysis as described previously (8)."}, "[3]": {"test_system": "HBMEC barrier over GBM6 cells", "assay": "HBMEC transwell blood brain barrier surrogate assay", "assay_type": "in vitro ADME, human", "conditions": "50 μM PDZ1i, 24 h, read out as GBM6 invasion", "procedure": "FIG. 12. PDZ1i crosses the blood brain barrier (BBB). Primary human malignant glioma cells (GBM6) were seeded on the bottom well of a transwell chamber. In the top chamber, a monolayer of HBMEC cells separated GBM6 cells from media containing DMSO, 50 μM PDZ1i or Temozolomide (500 μM). After 24 h incubation in these conditions, invasion of GBM6 cells were analyzed by seeding in a trans-well Matrigel invasion assay and stained after 24 h. NB: PDZ1i treatment and invasion assay without HBMEC barrier. Error bars=f s.d.\nA critical property of a potential therapeutic agent is its stability in the circulation and bioavailability in vivo. […] Additionally, when treating glioma pharmaceutically, the ability for a compound to cross the blood brain barrier (BBB) is paramount. […] Prior to in vivo efficacy studies, we evaluated the ability of the compound to cross the blood brain barrier using a target-based surrogate cellular assay. This method is preferred to direct in vivo measurements of compound concentration in the brain because of low sensitivity of the detection methods, and most importantly because of the presence of drug in various vascular spaces, i.e., the residual blood of the brain. […] After 24 h, we assessed the invasive ability of the treated GBM6 cells compared to pretreated controls. […]"}, "[4]": {"test_system": "HuVEC cells / chorioallantoic membrane", "assay": "in vitro tube formation and CAM assays with tumor-derived conditioned media", "assay_type": "cell-based", "conditions": "data not shown", "procedure": "In this study, the potential impact of PDZ1i on tumor-derived angiogenesis in a prostate cancer context was explored. The experimental strategy is outlined in FIG. 18A. […] This observation was also validated in different PC cells by qPCR. Additionally, since VEGF-A is a potent angiogenic factor and a downstream target of STAT3, the expression pattern of VEGF-A at both mRNA and protein levels was also evaluated in different PC cells, including mda-9 stably expressing RWPE-1 cells (FIG. 18C).\nTube formation and CAM assays were performed as described previously^27. Briefly, tumor-derived conditioned media were collected after 24 h of treatment (either DMSO or PDZ1i) and concentrated. Equal amounts of protein (50 μg) containing conditioned media were mixed with basal media and incubated with HuVEC cells on Matrigel layers. Photographs were taken after 6 h. In CAM assays, DMSO- or PDZ1 i-treated tumor cell-derived conditioned media were implanted on the CAM of 8 day-old fertilized eggs. Photographs were taken on day 12, 4 days after applying conditioned media."}, "U87 cells [5]": {"test_system": "U87 cells", "assay": "clonogenic radiosurvival (colony formation)", "assay_type": "cell-based, human", "conditions": "50 μM PDZ1i 2 h prior to radiation, 14 d", "procedure": "as §1, §2"}, "ImPHFA cells": {"test_system": "ImPHFA cells", "assay": "clonogenic radiosurvival (colony formation)", "assay_type": "cell-based, human", "conditions": "50 μM PDZ1i 2 h prior to radiation, 14 d", "procedure": "as §1, §2"}},
  "data": [
    {"smiles": "Cc1cc(NC(=O)c2nc3[nH]c4c(c(=O)n3n2)CCC4)c(C)cc1NC(=O)CCc1nnc(-c2ccccc2)o1", "note": "[113B7, N-(2,5-dimethyl-4-(3-(5-phenyl-1,3,4-oxadiazol-2-yl)propanamido)phenyl)-8-oxo-5,6,7,8-tetrahydro-4H-cyclopenta[d][1,2,4]triazolo[1,5-a]pyrimidine-2-carboxamide]", "values": [
      {"measurement": "radiation-induced invasion gains", "setting": "U87 cells [1]; 50 μM PDZ1i 2 h prior to 2 and 5 Gy", "result": "abolished these invasion gains"},
      {"measurement": "invasion", "setting": "U87 cells [1]; PDZ1i versus DMSO", "result": "effectively inhibited invasion"},
      {"measurement": "proliferation following radiation", "setting": "U87 cells [2]", "result": "significantly decreased"},
      {"measurement": "crossing of the HBMEC barrier (blood brain barrier surrogate)", "setting": "[3]", "result": "effectively crossed the HBMEC barrier"},
      {"measurement": "angiogenic activity of treated tumor cell-derived conditioned media", "setting": "[4]", "result": "anti-angiogenic properties"},
      {"measurement": "radiosensitivity (colony formation)", "setting": "U87 cells [5]", "result": "markedly more radiosensitivity"},
      {"measurement": "radiosensitivity (colony formation)", "setting": "ImPHFA cells", "result": "did not further radiosensitize"}
    ]}
  ]
}
